Assay: molar heat capacity at constant pressure
Details: 101.33 kPa, Crystal, Vacuum adiabatic calorimetry

O.OC[C@H]1O[C@@H](O[C@H]2O[C@H](CO)[C@@H](O)[C@H](O)[C@H]2O)[C@H](O)[C@@H](O)[C@@H]1O [α,β-trehalose monohydrate]
Details	molar heat capacity at constant pressure [J/K/mol]
12.15 K	6.701
12.87 K	6.35
13.89 K	7.774
15 K	9.56
15.06 K	9.688
16.13 K	11.54
17.15 K	13.35
18.14 K	15.21
19.1 K	17.06
20 K	18.85
20.02 K	18.86
20.99 K	20.81
21.98 K	22.87
22.97 K	24.93
23.99 K	27.06
25.09 K	29.37
26.28 K	31.89
27.52 K	34.52
28.79 K	37.22
30 K	39.76
30.14 K	40.07
31.48 K	42.93
32.83 K	45.73
34.23 K	48.62
35.64 K	51.52
37.04 K	54.43
38.44 K	57.19
39.85 K	59.97
40 K	60.3
41.25 K	62.71
42.67 K	65.48
44.14 K	68.28
45.66 K	71.1
47.22 K	74
48.83 K	76.91
50 K	78.98
50.46 K	79.86
52.14 K	82.8
53.84 K	85.77
55.55 K	88.73
56.47 K	90.18
58.33 K	93.36
60 K	96.14
60.17 K	96.48
62 K	99.53
63.81 K	102.56
65.62 K	105.58
67.43 K	108.53
69.25 K	111.51
70 K	112.73
71.08 K	114.46
72.92 K	117.44
74.76 K	120.43
76.6 K	123.41
78.42 K	126.41
80 K	128.94
80.24 K	129.3
82.05 K	132.24
83.88 K	135.15
85.74 K	138.11
87.62 K	141.12
89.52 K	144.11
90 K	144.87
91.42 K	147.15
93.33 K	150.17
95.28 K	153.24
97.28 K	156.4
99.29 K	159.5
100 K	160.59
101.26 K	162.58
103.21 K	165.61
105.12 K	168.61
107.01 K	171.53
108.87 K	174.41
110 K	176.15
110.71 K	177.24
112.52 K	180.05
114.31 K	182.82
116.08 K	185.5
117.84 K	188.16
119.57 K	190.8
120 K	191.54
121.29 K	193.41
122.99 K	196.08
124.68 K	198.72
126.4 K	201.25
128.14 K	203.9
129.89 K	206.59
130 K	206.76
131.7 K	209.4
133.54 K	212.03
135.4 K	214.95
137.31 K	217.83
139.29 K	220.87
140 K	221.8
141.32 K	223.89
143.36 K	226.95
145.42 K	229.87
147.49 K	232.93
149.55 K	235.92
150 K	236.64
151.6 K	238.94
153.65 K	242.05
155.7 K	244.94
157.76 K	248.08
159.82 K	250.99
160 K	251.27
161.88 K	253.84
163.94 K	256.98
166.01 K	260.01
168.09 K	262.9
170 K	265.74
170.15 K	265.9
172.2 K	268.93
174.23 K	271.83
176.25 K	274.9
178.26 K	277.71
180 K	280.12
180.26 K	280.35
182.24 K	283.42
184.22 K	286.13
186.18 K	288.99
188.13 K	291.83
190 K	294.51
190.07 K	294.5
191.99 K	297.33
193.92 K	300.26
195.86 K	302.94
197.82 K	305.58
199.78 K	308.6
200 K	308.94
201.75 K	311.51
203.73 K	314.35
205.72 K	317.15
207.72 K	320.03
209.73 K	323.23
210 K	323.42
211.76 K	326.07
213.79 K	328.83
215.82 K	331.74
217.85 K	335.14
219.89 K	337.71
220 K	337.95
221.94 K	340.79
223.97 K	343.7
226.01 K	346.53
228.06 K	349.68
230 K	352.54
230.09 K	352.7
232.12 K	355.67
234.16 K	358.66
236.2 K	361.46
238.24 K	364.57
240 K	367.19
240.3 K	367.64
242.38 K	370.71
244.44 K	373.64
246.49 K	376.59
248.54 K	379.8
250 K	381.89
250.58 K	382.78
252.6 K	385.78
254.62 K	388.6
256.63 K	391.62
258.63 K	394.61
260 K	396.69
260.63 K	397.5
262.91 K	400.41
264.59 K	403.48
266.56 K	406.35
268.52 K	409.35
270 K	411.55
270.48 K	412.29
272.46 K	415.5
274.46 K	418.09
276.47 K	421.07
278.49 K	424.17
280 K	426.56
280.52 K	427.38
282.54 K	430.46
284.56 K	433.56
286.58 K	436.49
288.58 K	439.62
290 K	441.71
290.63 K	443
292.65 K	445.73
294.68 K	448.7
296.7 K	451.81
298.15 K	454.11
298.72 K	454.95
300 K	456.92
300.74 K	457.97
